{"source": "patent US20070292351A1", "about": "“Assay for efficacy of histone deacetylase inhibitors” (Methylgene, Inc., priority 2006, published 2007)", "key": {"[1]": {"tested_on": "human peripheral white cells", "assay": "Microarray gene expression analysis, peripheral white cells ex vivo", "assay_type": "cell-based", "settings": "WBC ex vivo", "experimental": "(§1) Whole blood from either consenting healthy volunteers or consenting patients was centrifuged at 2500 rpm for 10 minutes at ambient temperature in a Sorvall RT-7 centrifuge (Mandel Scientific Co., Guelph, Ontario). Plasma was removed and buffy coat was collected. Five volumes of Erythrocyte Lysis Buffer (EL) (Qiagen Canada Inc., Mississauga, Ontario) were added into buffy coat. Buffy coat was incubated on ice for 20 minutes before it was centrifuged at 400 g for 10 minutes at 4° C. Supernatant was removed and buffy coat was washed twice with EL buffer and re-centrifuged. Buffy coat was resuspended in RPMI media and cells were counted with trypan blue exclusion. To isolate PBMCs, buffy coat cells were centrifuged over Lymphoprep (Axis-Shield, 1114544), and any remaining erythrocytes in the sample were lysed by treatment with EL lysis buffer (Qiagen, 79217). The cell pellets are washed and then re-suspended in RPMI containing 10% FBS.\n(§2) Biological analysis was performed using Biointerpreter software."}, "HDAC activity": {"tested_on": "HDAC activity", "assay": "Fluorescence-based whole cell HDAC enzyme assay in patients' peripheral white blood cells", "assay_type": "in vivo, human", "experimental": "At day 8 (72 h after the third dose), peripheral white blood cells were tested for HDAC activity by whole cell assay\nas §1\n(§3) Human patients with either solid tumors or leukemia/MDS diseases were enrolled in phase I studies with consensus forms. MGCD0103 were dosed into patients orally every other day (day 1, day 3, day 5 […]). Blood samples were withdrawled by using the Vacutainer sodium-heparin blood collection tubes (Becton Dickinson Laboratories, Franklin Lakes, N.J.) and shipped to the test site within 24 hours on ice-pack. Baseline samples were drawn immediately prior to the first drug dose, while the 24 hour samples were drawn at 24 hours post the first drug dose. The 48 hours samples were drawn at 48 hours post the first dose. For the 1 week samples, blood was drawn 72 hours after day 5 dose (3 accumulated doses during week 1).\nFreshly trypsinized cells or cells in suspension were dispensed in 96-well black Costar E1A/RIA plates (Corning Inc., Corning, N.Y.). We typically used 5×10^4 to 2×10^5 cells per well, and 8×10^5 white blood (mouse or human) cells/per well. Small molecule substrate Boc-Lys(Ac)-AMC (Bachem Biosciences Inc., King of Prussia, Philadelphia) were added to cell suspension with the final concentration of 300 uM. Cells were placed in a 37° C. incubator with 5% CO2 for 90 minutes (in the case of white blood cells, we incubated for 60 min). Fluorescence was read immediately before adding stop mixture to get a background. […] Fluorescence was developed for 15 minutes at 37° C. and read in a fluorometer (SPECTRAMAX GeminiXS, Molecular Devices, Sunnyvale, Calif.) with an excitation wavelength at 360 nm, emission at 470 nm, and a cutoff of 435 nm."}, "[2]": {"tested_on": "human leukemic MV-4-11 cells", "assay": "Microarray gene expression analysis, MV-4-11 cells in vitro", "assay_type": "cell-based", "settings": "MV-4-11 in vitro, 1 uM, c2-c5 = sample 1, 2, 3, sample 3 dye swap", "experimental": "Human cancer cell lines were from American Type Culture Collection (Manassas, Va.) and were all cultured following the vendor's instructions.\nas §2"}, "bone marrow blast count": {"tested_on": "bone marrow blast count", "assay": "Bone marrow blast count in AML patient", "assay_type": "in vivo, human", "settings": "AML Patient A, 2 cycles of treatment (FIG. 10)", "experimental": "FIG. 10. Reduction of bone marrow blast count in Patient A after 2 cycles of MGCD0103 treatment in vivo.\nas §3"}}, "note": "Where “and” joins values, the source holds several entries; their conditions need not be identical. Equal entries are not always repeated. Where two headings read alike, the source gives them in different places."}
{"smiles": "Nc1ccccc1NC(=O)c1ccc(CNc2nccc(-c3cccnc3)n2)cc1", "note": "[MGCD0103]", "values": [{"measurement": "fold induction at 1 µM", "setting": "[1]; probe A_23_P16523, read-out: Fold Induction of GDF15 transcription", "value": 18.8}, {"measurement": "fold induction at 1 µM", "setting": "[1]; probe A_23_P41344, read-out: Fold Induction of EREG transcription", "value": 12.8}, {"measurement": "fold induction at 1 µM", "setting": "[1]; probe A_23_P52336, read-out: Fold Induction of UNC5B transcription", "value": 2.66}, {"measurement": "fold induction at 1 µM", "setting": "[1]; probe A_23_P94754, read-out: Fold Induction of TNFSF15 transcription", "value": 4.43}, {"measurement": "fold induction at 1 µM", "setting": "[1]; probe A_23_P114947, read-out: Fold Induction of RGS2 transcription", "value": 4.43}, {"measurement": "fold induction at 1 µM", "setting": "[1]; probe A_23_P142506, read-out: Fold Induction of GADD45B transcription", "value": 2.9}, {"measurement": "fold induction at 1 µM", "setting": "[1]; probe A_23_P149019, read-out: Fold Induction of BAI2 transcription", "value": 2.69}, {"measurement": "fold induction at 1 µM", "setting": "[1]; probe A_23_P151046, read-out: Fold Induction of KLRC1 transcription", "value": 3.12}, {"measurement": "fold induction at 1 µM", "setting": "[1]; probe A_23_P259071, read-out: Fold Induction of AREG transcription", "value": 32.6}, {"measurement": "fold induction at 1 µM", "setting": "[1]; probe A_23_P315273, read-out: Fold Induction of MT3 transcription", "value": 5.16}, {"measurement": "fold induction at 1 µM", "setting": "[1]; probe A_24_P5856, read-out: Fold Induction of TNFSF9 transcription", "value": 3.32}, {"measurement": "fold induction at 1 µM", "setting": "[1]; probe A_24_P217520, read-out: Fold Induction of EREG transcription", "value": 10.5}, {"measurement": "inhibition of HDAC activity in peripheral white cells", "setting": "HDAC activity; AML Patient A with clinical response (FIG. 9)", "value": "Time-dependent inhibition"}, {"measurement": "HDAC inhibition", "setting": "HDAC activity; AML patient (Patient A) with clinical response, day 8", "value": 68, "unit": "%"}, {"measurement": "HDAC inhibition in vivo in peripheral white blood cells", "setting": "HDAC activity; patients with solid tumors, one week (three doses per week), day 8 (FIG. 7)", "value": "dose-dependent HDAC inhibition"}, {"measurement": "average HDAC inhibition", "setting": "HDAC activity; three other AML patients (no response), day 8", "value": "< 5", "unit": "%"}, {"measurement": "Ratio vs control, ADORA1", "setting": "[2]", "value": "3.6 and 5.4 and 5.1"}, {"measurement": "Ratio vs control, AHR", "setting": "[2]", "value": "11.3 and 10.5 and 13.1 and 10.2"}, {"measurement": "Ratio vs control, APOE", "setting": "[2]", "value": "5.9 and 6.3 and 6.0 and 6.1"}, {"measurement": "Ratio vs control, AXUD1", "setting": "[2]", "value": "2.5 and 3.9 and 3.1"}, {"measurement": "Ratio vs control, BMF", "setting": "[2]", "value": "6.0 and 7.4 and 6.7 and 7.1"}, {"measurement": "Ratio vs control, CARD10", "setting": "[2]", "value": "2.7 and 4.4 and 3.0 and 3.9"}, {"measurement": "Ratio vs control, CASP5", "setting": "[2]", "value": "2.7 and 2.5 and 3.0 and 2.6"}, {"measurement": "Ratio vs control, CASP7", "setting": "[2]", "value": "5.0 and 7.2 and 5.2 and 5.8"}, {"measurement": "Ratio vs control, CAST", "setting": "[2]", "value": "2.7 and 3.0 and 2.5 and 3.2"}, {"measurement": "Ratio vs control, CD40", "setting": "[2]", "value": "8.0 and 7.2 and 7.0 and 8.7"}, {"measurement": "Ratio vs control, CDKN1A", "setting": "[2]", "value": "4.4 and 4.0 and 4.6 and 3.9"}, {"measurement": "Ratio vs control, CLU", "setting": "[2]", "value": "20.2 and 13.8 and 14.7 and 14.4"}, {"measurement": "Ratio vs control, DNASE2", "setting": "[2]", "value": "10.5 and 11.4 and 12.1 and 12.9"}, {"measurement": "Ratio vs control, EIF2AK2", "setting": "[2]", "value": "17.9 and 21.1 and 18.1 and 26.7"}, {"measurement": "Ratio vs control, GPR65", "setting": "[2]", "value": "7.8 and 6.5 and 7.9 and 6.6"}, {"measurement": "Ratio vs control, HIPK2", "setting": "[2]", "value": "4.1 and 6.6 and 4.6 and 4.2"}, {"measurement": "Ratio vs control, IL1B", "setting": "[2]", "value": "9.6 and 11.2 and 8.5 and 11.4"}, {"measurement": "Ratio vs control, IL3RA", "setting": "[2]", "value": "4.4 and 4.3 and 5.1 and 3.3"}, {"measurement": "Ratio vs control, IL18", "setting": "[2]", "value": "4.5 and 7.9 and 6.5 and 5.5"}, {"measurement": "Ratio vs control, LY86", "setting": "[2]", "value": "4.5 and 3.6 and 3.8 and 4.3"}, {"measurement": "Ratio vs control, MAP3K14", "setting": "[2]", "value": "2.6 and 2.8"}, {"measurement": "Ratio vs control, MX1", "setting": "[2]", "value": "35.8 and 27.5 and 38.0 and 23.2"}, {"measurement": "Ratio vs control, NALP1", "setting": "[2]", "value": "7.3 and 7.4 and 6.4"}, {"measurement": "Ratio vs control, NGFR", "setting": "[2]", "value": "3.0 and 2.7 and 2.6 and 2.8"}, {"measurement": "Ratio vs control, PDE1B", "setting": "[2]", "value": "4.3 and 3.4 and 4.8 and 3.6"}, {"measurement": "Ratio vs control, PPP3CA", "setting": "[2]", "value": "2.7 and 3.0 and 3.3 and 2.6"}, {"measurement": "Ratio vs control, PRKAR2B", "setting": "[2]", "value": "10.8 and 7.2 and 11.1 and 7.6"}, {"measurement": "Ratio vs control, TNFRSF21", "setting": "[2]", "value": "4.1 and 6.4 and 4.7 and 5.2"}, {"measurement": "Ratio vs control, TNFRSF25", "setting": "[2]", "value": "4.2 and 4.0 and 4.4 and 3.6"}, {"measurement": "Ratio vs control, TNFSF10", "setting": "[2]", "value": "7.4 and 7.2 and 10.1 and 5.6"}, {"measurement": "Ratio vs control, TNFSF14", "setting": "[2]", "value": "5.1 and 3.7 and 3.9 and 4.6"}, {"measurement": "Ratio vs control, BNIP3L", "setting": "[2]; gene listed twice (r23, r58)", "value": "4.9 and 3.2 and 3.4 and 2.6 and 3.5 and 2.9"}, {"measurement": "Ratio vs control, CASP4", "setting": "[2]; gene listed twice (r64, r66)", "value": "2.7 and 2.8 and 2.6 and 2.9 and 3.0 and 2.5 and 3.1"}, {"measurement": "bone marrow blast count", "setting": "bone marrow blast count", "value": "reduction"}]}
